According to patent US9452985B2, “Tau imaging probe” (GE Healthcare Limited, priority 2010, dated 2016):
Structures can show the parent of a compound that is named as a salt.

Tested on: neurofibrillary tangles
Assay: Staining test on brain section of Alzheimer's disease patients
Format: binding, human
Conditions: 100 μM solution in 50% ethanol, 10 minutes, fluorescence microscope
Source text: The procedure of staining test on the compounds of the present invention on the brain section of Alzheimer's disease patients is described below:
(1) We used the brain specimens of the temporal lobe or hippocampus from patients who were definitely diagnosed as having Alzheimer's disease pathology. The specimens were obtained from Choju Medical Institute, Fukushimura Hospital, our collaborating research institute, and the consent for use for research purposes was obtained from the patients' bereaved family (Fukushimura Hospital, Ethics Committee Approval No. 20).
(2) The paraffin-embedded brain tissue was sliced to 6 or 8 μm thickness, extended on a slide glass, and dried. The paraffinized brain section was deparaffinized by washing with xylene for 10 minutes×2, 100% ethanol for 5 minutes×2, 90% ethanol for 5 minutes, and running water for 10 minutes in this order.
(3) As a pretreatment for staining with the compounds of the present invention, the treatment to remove autofluorescence with lipofuscin was performed. First, the paraffinized brain section was immersed in 0.25% KMnO4 solution for 20 minutes. It was washed with PBS for 2 minutes twice, immersed in a 0.1% K2S2O5/oxalic acid solution for approximately 5 minutes, and further washed with PBS for 2 minutes 3 times.
(4) From 100 μM solution of the compounds of the present invention dissolved in 50% ethanol, approximately 150 μl was dropped on the section to react for 10 minutes. After being immersed in tap water 5 times, it was mounted with Flour Save Reagent (Calbiochem) and examined with a fluorescence microscope (Nikon, ECLIPSE 80i). The images were taken with a digital camera (Nikon, Dxin1200F or Photometrics, Cool SNAP ES).

Structure (SMILES) | binding to neurofibrillary tangles in the brain section of Alzheimer's disease patients (staining test)
CN(C)c1cccc2nc(-c3ccc(F)cc3)ccc12 [THK-5080, 2-(4-fluorophenyl)-5-dimethylaminoquinoline oxalate] | bind to neurofibrillary tangles specifically and selectively
CCN(CC)c1ccc(-c2ccc3cc(OC(CO)CF)ccc3n2)cc1 (centres unmarked) [THK-5035, 2-(4-diethylaminophenyl)-6-(1-fluoromethyl-2-hydroxy)quinoline] | bind to neurofibrillary tangles specifically and selectively
Nc1cccc2ccc(-c3ccc(F)cc3)nc12 [THK-5081, 8-amino-2-(4-fluorophenyl)quinoline] | bind to neurofibrillary tangles specifically and selectively
CN(C)c1ccc2nc(-c3ccc(F)cc3)ccc2c1 [THK-5087, 2-(4-fluorophenyl)-6-dimethylaminoquinoline] | bind to neurofibrillary tangles specifically and selectively
CNc1ccc(-c2ccc3ccc(OCC(O)CF)cc3n2)cc1 (centres unmarked) [THK-5106, 7-[(3-fluoro-2-hydroxy)propoxy]-2-(4-methylaminophenyl)quinoline] | bind to neurofibrillary tangles specifically and selectively
CN1CCOc2cc(-c3ccc4cc(OCC(O)CF)ccc4n3)cnc21 (centres unmarked) [THK-5136, 6-[(3-fluoro-2-hydroxy)propoxy]-2-(4-methyl-3,4-dihydro-2H-pyrido[3,2-b][1,4]oxazin-7-yl)quinoline] | bind to neurofibrillary tangles specifically and selectively
CN1CCCc2cc(-c3ccc4cc(OCC(O)CF)ccc4n3)ccc21 (centres unmarked) [THK-5153, 6-[(3-fluoro-2-hydroxy)propoxy]-2-(1-methyl-1,2,3,4-tetrahydroquinolin-6-yl)quinoline] | bind to neurofibrillary tangles specifically and selectively
CCN(CC)c1ccc(-c2ccc3cccc(OCC(O)CF)c3n2)cc1 (centres unmarked) [THK-5066, 2-(4-diethylaminophenyl)-8-[(3-fluoro-2-hydroxy)propoxy]quinoline] | bind to neurofibrillary tangles specifically and selectively
CCN(CC)c1ccc(-c2ccc3c(OC(CO)CF)cccc3n2)cc1 (centres unmarked) [THK-5064, 2-(4-diethylaminophenyl)-5-(1-fluoromethyl-2-hydroxyethoxy)quinoline] | bind to neurofibrillary tangles specifically and selectively
CCN(CC)c1ccc2nc(-c3ccc(F)nc3)ccc2c1 [THK-5088, 6-diethylamino-2-(2-fluoropyrid-5-yl)quinoline] | bind to neurofibrillary tangles specifically and selectively
CCN(CC)c1ccc(-c2ccc3ccc(OC(CO)CF)cc3n2)cc1 (centres unmarked) [THK-5058, 2-(4-diethylaminophenyl)-7-(1-fluoromethyl-2-hydroxyethoxy)quinoline] | bind to neurofibrillary tangles specifically and selectively
CN(C)c1cccc2ccc(-c3ccc(F)cc3)nc12 [THK-5082, 2-(4-fluorophenyl)-8-dimethylaminoquinoline] | bind to neurofibrillary tangles specifically and selectively
CN1CCCc2cc(-c3ccc4cc(OC(C)(C)C(O)CF)ccc4n3)ccc21 (centres unmarked) [THK-5157, 6-[(3-fluoro-2-hydroxy-1,1-dimethyl)propoxy]-2-(1-methyl-1,2,3,4-tetrahydroquinolin-6-yl)quinoline] | bind to neurofibrillary tangles specifically and selectively
CCN(C)c1ccc(-c2ccc3ccc(OCC(O)CF)cc3n2)cc1 (centres unmarked) [THK-5112, 2-(4-ethylmethylaminophenyl)-7-[(3-fluoro-2-hydroxy)propoxy]quinoline] | bind to neurofibrillary tangles specifically and selectively
CCN(CC)c1ccc(-c2nc3ccccc3cc2OC(CO)CF)cc1 (centres unmarked) [THK-5065, 2-(4-diethylaminophenyl)-3-(1-fluoromethyl-2-hydroxyethoxy)quinoline] | bind to neurofibrillary tangles specifically and selectively
Nc1cccc2nc(-c3ccc(F)cc3)ccc12 [THK-5079, 5-amino-2-(4-fluorophenyl)quinoline] | bind to neurofibrillary tangles specifically and selectively

Structure (SMILES) | binding to neurofibrillary tangles in the brain section of Alzheimer's disease patients (staining test)
CNc1ccc(-c2ccc3cc(N(C)C)ccc3n2)cc1OCC(O)CF (centres unmarked) [THK-5164, 2-[3-[(3-fluoro-2-hydroxy)propoxy]-4-(methylamino)phenyl]-6-dimethylamino quinoline] | bind to neurofibrillary tangles specifically and selectively
Nc1ccc2ccc(-c3ccc(F)cc3)nc2c1 [THK-5075, 7-amino-2-(4-fluorophenyl)quinoline] | bind to neurofibrillary tangles specifically and selectively
CN(C)c1ccc2nc(-c3ccc(N(C)C)c(OCC(O)CF)c3)ccc2c1 (centres unmarked) [THK-5156, 2-[3-[(3-fluoro-2-hydroxy)propoxy]-4-(dimethylamino)phenyl]-6-dimethylaminoquinoline] | bind to neurofibrillary tangles specifically and selectively
CN(C)c1ccc(-c2ccc3ccc(OC(CO)CF)cc3n2)cc1 (centres unmarked) [THK-5071, 2-(4-fluoromethyl-2-hydroxyethoxy)-2-(4-dimethylaminophenyl)quinoline] | bind to neurofibrillary tangles specifically and selectively
Nc1ccc2nc(-c3ccc(F)cc3)ccc2c1 [THK-5086, 6-amino-2-(4-fluorophenyl)quinoline] | bind to neurofibrillary tangles specifically and selectively
CCN(CC)c1cccc2nc(-c3ccc(F)nc3)ccc12 [THK-5092, 5-diethylamino-2-(2-fluoropyrid-5-yl)quinoline] | bind to neurofibrillary tangles specifically and selectively
CN(C)c1ccc2ccc(-c3ccc(F)cc3)nc2c1 [THK-5076, 2-(4-fluorophenyl)-7-dimethylaminoquinoline] | bind to neurofibrillary tangles specifically and selectively
Nc1ccc(-c2ccc3ccc(OC(CO)CF)cc3n2)cn1 (centres unmarked) [THK-932, 2-(2-aminopyrid-5-yl)-7-(1-fluoromethyl-2-hydroxyethoxy)quinoline] | bind to neurofibrillary tangles specifically and selectively
CN(C)c1ccc(-c2ccc3ccc(OCC(O)CF)cc3n2)cc1 (centres unmarked) [THK-5107, 7-[(3-fluoro-2-hydroxy)propoxy]-2-(4-dimethylaminophenyl)quinoline] | bind to neurofibrillary tangles specifically and selectively
CCNc1cccc2nc(-c3ccc(F)nc3)ccc12 [THK-5091, 5-ethylamino-2-(2-fluoropyrid-5-yl)quinoline] | bind to neurofibrillary tangles specifically and selectively
CCN(CC)c1ccc2ccc(-c3ccc(F)nc3)nc2c1 [THK-5097, 7-diethylamino-2-(2-fluoropyrid-5-yl)quinoline] | bind to neurofibrillary tangles specifically and selectively
CCN(CC)c1ccc(-c2cc(OCC(O)CF)c3ccccc3n2)cc1 (centres unmarked) [THK-5059, 2-(4-diethylaminophenyl)-4-(3-fluoro-2-hydroxypropoxy)quinoline] | bind to neurofibrillary tangles specifically and selectively
Nc1ccc2nc(-c3ccc(N)c(OCC(O)CF)c3)ccc2c1 (centres unmarked) [THK-5155, 6-amino-2-[4-(amino)-3-[(3-fluoro-2-hydroxy)propoxy]phenyl]quinoline] | bind to neurofibrillary tangles specifically and selectively
CN(C)c1ccc2nc(-c3ccc(N)c(F)c3)ccc2c1 [THK-5128, 2-(4-amino-3-fluorophenyl)-6-dimethylaminoquinoline] | bind to neurofibrillary tangles specifically and selectively
CCN(CC)c1ccc(-c2ccc3ccc(OCC(O)CF)cc3n2)cc1 (centres unmarked) [THK-5038, 2-(4-diethylaminophenyl)-7-(2-fluoromethyl-2-hydroxyethoxy)quinoline] | bind to neurofibrillary tangles specifically and selectively
CNc1ccc(-c2ccc3ccc(OC(CO)CF)cc3n2)cc1 (centres unmarked) [THK-5077, 7-(1-fluoromethyl-2-hydroxyethoxy)-2-(4-methylaminophenyl)quinoline] | bind to neurofibrillary tangles specifically and selectively
